Measured values reported in the NIST ThermoML archive (doi:10.1021/acs.jced.5b00385).

Settings: Liquid, Vibrating tube method

COCCOC(C)=O [2-methoxyethyl ethanoate]
Settings | mass density [kg/m3]
283.47 K, 100 kPa | 1015.98
283.47 K, 1000 kPa | 1016.6
283.47 K, 3000 kPa | 1018.02
283.47 K, 5000 kPa | 1019.43
283.47 K, 10000 kPa | 1022.82
283.47 K, 20000 kPa | 1029.33
283.47 K, 25000 kPa | 1032.44
283.47 K, 30000 kPa | 1035.47
283.47 K, 40000 kPa | 1041.29
283.47 K, 50000 kPa | 1046.81
283.47 K, 60000 kPa | 1052.11
283.47 K, 70000 kPa | 1057.33
283.47 K, 80000 kPa | 1062.12
283.47 K, 100000 kPa | 1071.34
283.48 K, 15000 kPa | 1026.12
283.48 K, 90000 kPa | 1066.8
293.45 K, 100 kPa | 1005.18
293.45 K, 1000 kPa | 1005.85
293.45 K, 3000 kPa | 1007.33
293.45 K, 5000 kPa | 1008.8
293.45 K, 10000 kPa | 1012.42
293.45 K, 15000 kPa | 1015.91
293.45 K, 20000 kPa | 1019.32
293.45 K, 25000 kPa | 1022.58
293.45 K, 30000 kPa | 1025.8
293.45 K, 40000 kPa | 1031.92
293.45 K, 50000 kPa | 1037.72
293.45 K, 60000 kPa | 1043.26
293.45 K, 70010 kPa | 1048.51
293.45 K, 90000 kPa | 1058.45
293.46 K, 80010 kPa | 1053.61
293.46 K, 100000 kPa | 1063.15
303.37 K, 100 kPa | 993.64
303.37 K, 5000 kPa | 997.55
303.37 K, 25000 kPa | 1012.15
303.37 K, 90010 kPa | 1049.67
303.38 K, 1000 kPa | 994.33
303.38 K, 3000 kPa | 995.95
303.38 K, 10000 kPa | 1001.38
303.38 K, 15000 kPa | 1005.07
303.38 K, 20000 kPa | 1008.68
303.38 K, 30000 kPa | 1015.48
303.38 K, 40000 kPa | 1021.92
303.38 K, 50000 kPa | 1027.99
303.38 K, 60000 kPa | 1033.79
303.38 K, 70000 kPa | 1039.34
303.38 K, 80000 kPa | 1044.62
303.38 K, 100000 kPa | 1054.53
313.28 K, 25000 kPa | 1002.26
313.29 K, 100 kPa | 982.6
313.29 K, 20000 kPa | 998.59
313.3 K, 1000 kPa | 983.35
313.3 K, 3000 kPa | 985.09
313.3 K, 5000 kPa | 986.8
313.3 K, 10000 kPa | 990.88
313.3 K, 15000 kPa | 994.81
313.3 K, 30000 kPa | 1005.78
313.3 K, 40000 kPa | 1012.55
313.3 K, 50000 kPa | 1018.92
313.3 K, 60000 kPa | 1024.91
313.3 K, 70000 kPa | 1030.73
313.3 K, 80000 kPa | 1036.18
313.3 K, 90000 kPa | 1041.42
313.3 K, 100000 kPa | 1046.43
323.14 K, 100 kPa | 971.53
323.14 K, 1000 kPa | 972.34
323.14 K, 3000 kPa | 974.16
323.15 K, 5000 kPa | 975.96
323.15 K, 10000 kPa | 980.29
323.15 K, 15000 kPa | 984.47
323.15 K, 20000 kPa | 988.47
323.15 K, 25000 kPa | 992.34
323.15 K, 70000 kPa | 1022.15
323.15 K, 80000 kPa | 1027.84
323.15 K, 90000 kPa | 1033.26
323.15 K, 100000 kPa | 1038.48
323.16 K, 30000 kPa | 996.08
323.16 K, 40000 kPa | 1003.14
323.16 K, 50000 kPa | 1009.8
323.16 K, 60000 kPa | 1016.1
333.01 K, 100 kPa | 960.32
333.01 K, 1000 kPa | 961.21
333.01 K, 3000 kPa | 963.17
333.01 K, 50000 kPa | 1000.75
333.01 K, 60000 kPa | 1007.3
333.02 K, 5000 kPa | 965.08
333.02 K, 10000 kPa | 969.69
333.02 K, 15000 kPa | 974.13
333.02 K, 20000 kPa | 978.36
333.02 K, 25000 kPa | 982.46
333.02 K, 30000 kPa | 986.35
333.02 K, 40000 kPa | 993.79
333.02 K, 70000 kPa | 1013.7
333.02 K, 80000 kPa | 1019.56
333.02 K, 90000 kPa | 1025.22
333.02 K, 100000 kPa | 1030.6
342.87 K, 1000 kPa | 949.88
342.88 K, 100 kPa | 948.92
342.88 K, 3000 kPa | 951.95
342.89 K, 5000 kPa | 953.98
342.89 K, 10000 kPa | 958.88
342.89 K, 15000 kPa | 963.56
342.89 K, 20000 kPa | 968.04
342.89 K, 25000 kPa | 972.33
342.9 K, 30000 kPa | 976.44
342.9 K, 40000 kPa | 984.26
342.9 K, 50000 kPa | 991.52
342.9 K, 60000 kPa | 998.35
342.9 K, 70000 kPa | 1005.1
342.9 K, 80010 kPa | 1011.23
342.9 K, 90000 kPa | 1017.07
342.9 K, 100000 kPa | 1022.63
352.77 K, 10000 kPa | 948.28
352.77 K, 15000 kPa | 953.26
352.77 K, 20000 kPa | 958
352.78 K, 25000 kPa | 962.53
352.78 K, 30000 kPa | 966.88
352.78 K, 40000 kPa | 975.07
352.78 K, 50000 kPa | 982.69
352.78 K, 60000 kPa | 989.8
352.79 K, 100 kPa | 937.57
352.79 K, 1000 kPa | 938.6
352.79 K, 3000 kPa | 940.86
352.79 K, 5000 kPa | 943.03
352.79 K, 70000 kPa | 996.7
352.79 K, 80000 kPa | 1003.07
352.79 K, 90000 kPa | 1009.1
352.79 K, 100000 kPa | 1014.88
362.64 K, 100 kPa | 926.12
362.64 K, 1000 kPa | 927.21
362.64 K, 3000 kPa | 929.6
362.64 K, 5000 kPa | 931.91
362.64 K, 15000 kPa | 942.8
362.64 K, 50000 kPa | 973.78
362.65 K, 10000 kPa | 937.52
362.65 K, 20000 kPa | 947.84
362.65 K, 25000 kPa | 952.6
362.65 K, 30000 kPa | 957.19
362.65 K, 40000 kPa | 965.79
362.65 K, 60000 kPa | 981.22
362.65 K, 70000 kPa | 988.32
362.65 K, 80000 kPa | 994.92
362.65 K, 90000 kPa | 1001.16
362.65 K, 100000 kPa | 1007.15
